These results are taken from US11214803B2, “Modulators of YAP1 expression” (Ionis Pharmaceuticals, Inc., priority 2019, dated 2022).

Strand notation (5' to 3'): a small letter for the sugar, then the base; units joined by * are phosphorothioate-linked, units joined directly phosphodiester-linked; [ ] holds rarer units or linkages, { } end groups; capitals alone tell only the bases. e = 2'-O-(2-methoxyethyl) (MOE); k = constrained ethyl (cEt); [5mC] = 5-methylcytosine; d = 2'-deoxy (DNA); m = 2'-O-methyl

This series concerns Yap1 mRNA. The series is described as follows: Antisense inhibition of human Yap1 in SNU-449 cells by modified oligonucleotides, single dose (Example 5, RTS36584). The format is cell-based. The method, boiled down:
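SNU-449 cells (10,000/well) took up 2,000 nM oligonucleotide by free uptake for about 48 h. Yap1 mRNA was measured by qRT-PCR with primer probe set RTS36584 and normalised to RIBOGREEN total RNA. Values are % of untreated control; asterisked oligos target the amplicon region.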

The mark [1] stands for this setting: Table 42 (separate experiment), SNU-449 cells, 10,000 cells per well, free uptake, 2,000 nM modified oligonucleotide, approximately 48 hours, RTS36584, normalized to RIBOGREEN, Yap1 mRNA relative to untreated control cells.
The mark [2] stands for this setting: Table 46, Yap1 mRNA as percent of untreated control, SNU-449 cells, single dose.
Where [3] appears, read: Yap1 mRNA, percent of untreated control, modified oligonucleotides targeting SEQ ID NO: 1 and 2, Table 47.
Setting [4] is: Table 43 experiment, SNU-449 cells, 10,000 cells per well, free uptake, 2,000 nM, approximately 48 hours, RTS36584, Yap1 mRNA normalized to RIBOGREEN, relative to untreated control cells.
Setting [5] is: Table 51, Yap1 mRNA remaining as percent of untreated control (UT), SNU-449 cells, single dose.
[6] abbreviates: Table 49, Yap1 mRNA level relative to untreated control, modified oligonucleotides targeting SEQ ID NO.: 1 and 2.
The mark [7] stands for this setting: Table 39, SNU-449 cells, 10,000 cells per well, free uptake, 2,000 nM oligonucleotide, approx. 48 hours, RTS36584, normalized to RIBOGREEN, Yap1 mRNA relative to untreated control.
Setting [8] is: Table 40 (separate experiment), SNU-449 cells, 10,000 cells per well, free uptake, 2,000 nM oligonucleotide, approx. 48 hours, RTS36584, normalized to RIBOGREEN, Yap1 mRNA relative to untreated control.
The mark [9] stands for this setting: Table 52, Yap1 mRNA, modified oligonucleotides targeting SEQ ID NO: 1 and 2.
Where [10] appears, read: Table 44 experiment, SNU-449 cells, 10,000 cells per well, free uptake, 2,000 nM, approximately 48 hours, RTS36584, Yap1 mRNA normalized to RIBOGREEN, relative to untreated control cells.
Where [11] appears, read: Table 41, SNU-449 cells, 10,000 cells per well, free uptake, 2,000 nM modified oligonucleotide, approximately 48 hours, RTS36584, normalized to RIBOGREEN, Yap1 mRNA relative to untreated control cells.
[12] abbreviates: Table 50, Yap1 mRNA remaining as percent of untreated control (UT), SNU-449 cells, single dose.

As for “1198712 (kA*kG*dA*d[5mC]*dT*dA*dA*dG*dT*dA*dA*dG*kG*eT*kT*eT; antisense) [Compound 1198712]”, the “YAP1 (% UTC)” value under setting [1] was found to be 110 % UTC.
As for “1198848 (kA*kT*dT*dT*dA*dG*dG*dA*dT*dG*d[5mC]*kA*eT*kG*eG*kT; antisense) [Compound 1198848]”, the “YAP1 (% UT)” value under setting [2] came out at 47 % UT.
Turning to “1197212 (antisense kT*kT*kT*dA*dT*dG*dT*dA*dA*dT*dA*dT*dT*kG*k[5mC]*kA) [Compound 1197212]”, the “YAP1 (% UT)” value under setting [3] was 55 % UT.
As to “1198217 (kG*kG*dT*dA*dT*dA*dA*d[5mC]*dT*dG*dG*eG*e[5mC]*eA*kA*kA; antisense) [Compound 1198217]”, the “YAP1 (% UTC)” value under setting [4] is reported as 57 % UTC.
For the substance “1197254 (antisense kT*kT*kA*dG*mG*dA*dT*dG*d[5mC]*dA*dT*dG*dG*kT*kT*kT) [Compound 1197254]”, the “YAP1 (% UT)” value under setting [5] came out at 51 % UT.
As for “1095567 (antisense k[5mC]*kA*k[5mC]*dT*dG*dA*dG*dG*dT*dA*dT*dA*kA*e[5mC]*kT*eG) [Compound 1095567]”, the “YAP1 (% UT)” value under setting [6] came to 92 % UT.
Consider “1198434 (kT*dG*dT*dA*dA*dT*dA*dT*dT*dG*d[5mC]*kA*eA*kT*e[5mC]*kT) [Compound 1198434]”, for which, under setting [7], the “YAP1 (% UTC)” value came to 78 % UTC.
“1095575 (antisense kA*k[5mC]*dT*dG*dA*dG*dG*dT*dA*dT*dA*eA*e[5mC]*eT*kG*kG) [Compound 1095575]”: the “YAP1 (% UTC)” value under setting [4] worked out at 55 % UTC.
For the substance “1197305 (kA*k[5mC]*kT*d[5mC]*mU*dT*dA*dT*dA*dT*dG*dG*dT*kT*kT*kT; antisense) [Compound 1197305]”, the “YAP1 (% UT)” value under setting [5] came to 30 % UT.
As for “1076187 (kG*kA*kT*dT*dT*dA*dG*dG*dA*dT*dG*d[5mC]*dA*kT*kG*kG; antisense) [Compound 1076187]”, under setting [3], the “YAP1 (% UT)” value is reported as 17 % UT.
Consider “1198427 (k[5mC]*dA*dA*d[5mC]*dT*d[5mC]*dT*dT*dA*dT*dA*kT*eG*kG*eT*kT; antisense) [Compound 1198427]”, for which the “YAP1 (% UTC)” value under setting [8] was 62 % UTC.
As to “1198703 (k[5mC]*kT*dT*dT*dA*dA*dA*dG*dT*dG*dT*dA*kT*eG*kT*e[5mC]; antisense) [Compound 1198703]”, under setting [1], the “YAP1 (% UTC)” value is 42 % UTC.
For “1198584 (antisense TTAGGATGCATGGTTT; chemistry not fully specified) [Compound 1198584]”, the “YAP1 (% UT)” value under setting [6] was determined as 37 % UT.
Turning to “1197267 (kA*kT*kG*dT*mA*dA*dT*dA*dT*dT*dG*d[5mC]*dA*kA*kT*k[5mC]) [Compound 1197267]”, the “YAP1 (% UT)” value under setting [5] amounted to 62 % UT.
On to “1198894 (kG*kA*dA*dA*dT*dT*dG*dT*d[5mC]*dT*d[5mC]*kA*dT*kG*d[5mC]*k[5mC]; antisense) [Compound 1198894]”, for which the “YAP1 (% UTC)” value (Table 45, Yap1 mRNA as percent of untreated control, SNU-449 cells, single dose) is listed as 57 % UTC.
In the case of “1198241 (kT*kT*dT*dA*dG*dG*dA*dT*dG*d[5mC]*dA*eT*eG*eG*kT*kT; antisense) [Compound 1198241]”, under setting [4], the “YAP1 (% UTC)” value turned out to be 32 % UTC.
Consider “1198549 (antisense kA*kT*kG*dG*dA*dA*dA*dT*dT*dG*dT*d[5mC]*kT*k[5mC]*kA*eT) [Compound 1198549]”, for which the “YAP1 (% UT)” value under setting [6] came out at 84 % UT.
Regarding “1200813 (k[5mC]*kT*kT*dT*dT*mA*d[5mC]*dA*dT*dT*dA*dG*dG*kA*kA*k[5mC]; antisense) [Compound 1200813]”, the “YAP1 (% UT)” value under setting [9] worked out at 58 % UT.
Regarding “1197238 (antisense kA*kG*kG*dT*mA*dT*dA*dA*d[5mC]*dT*dG*dG*dG*k[5mC]*kA*kA) [Compound 1197238]”, the “YAP1 (% UT)” value under setting [5] was determined as 43 % UT.
Regarding “1198758 (kA*eT*kA*dG*dT*dG*d[5mC]*dT*dT*dT*dG*dG*eA*eA*kG*kA; antisense) [Compound 1198758]”, under setting [8], the “YAP1 (% UTC)” value amounted to 47 % UTC.
For “1198851 (CAGATTTAGGATGCAT; antisense; chemistry not fully specified) [Compound 1198851]”, the “YAP1 (% UT)” value under setting [2] came out at 82 % UT.
As for “1200794 (kA*kG*kA*dG*dT*mA*dT*dG*dT*dG*dG*d[5mC]*dA*kA*kT*kA; antisense) [Compound 1200794]”, under setting [5], the “YAP1 (% UT)” value is 18 % UT.
In the case of “1198231 (kT*kT*dG*dG*dA*dA*dG*dA*dT*d[5mC]*dT*eG*eA*eA*kA*k[5mC]) [Compound 1198231]”, the “YAP1 (% UTC)” value under setting [1] is recorded as 73 % UTC.
“1198359 (k[5mC]*kT*kT*dT*dA*dA*dA*dG*dT*dG*dT*dA*kT*eG*kT*e[5mC]; antisense) [Compound 1198359]”: the “YAP1 (% UT)” value under setting [6] amounted to 28 % UT.
For the substance “1198499 (kT*kT*dT*dA*dG*dG*dA*dT*dG*d[5mC]*dA*eT*kG*eG*kT*eT; antisense) [Compound 1198499]”, under setting [10], the “YAP1 (% UTC)” value came out at 13 % UTC.
Turning to “1198738 (kA*e[5mC]*kT*dG*dA*dG*dG*dT*dA*dT*dA*dA*e[5mC]*eT*kG*kG; antisense) [Compound 1198738]”, under setting [11], the “YAP1 (% UTC)” value amounted to 38 % UTC.
Take “1200828 (kA*kT*kA*dG*dT*mG*d[5mC]*dT*dT*dT*dG*dG*dA*kA*kG*kA; antisense) [Compound 1200828]”: the “YAP1 (% UT)” value under setting [9] was determined as 54 % UT.
On the same count and under the same terms, the same measure for “1200853 (kA*kT*kG*dT*dA*mA*dT*dA*dT*dT*dG*d[5mC]*dA*kA*kT*k[5mC]; antisense) [Compound 1200853]”: 69 % UT.
As for “1198340 (kA*kA*k[5mC]*dT*d[5mC]*dT*dT*dA*dT*dA*dT*dG*kG*eT*kT*eT; antisense) [Compound 1198340]”, under setting [6], the “YAP1 (% UT)” value was determined as 123 % UT.
In the case of “1197283 (kG*kA*kA*dA*mU*dT*dG*dT*d[5mC]*dT*d[5mC]*dA*dT*kG*k[5mC]*k[5mC]; antisense) [Compound 1197283]”, the “YAP1 (% UT)” value under setting [12] is recorded as 29 % UT.
Turning to “1198498 (antisense kT*kT*dA*dG*dG*dA*dT*dG*d[5mC]*dA*dT*eG*kG*eT*kT*eT) [Compound 1198498]”, the “YAP1 (% UTC)” value under setting [10] was determined as 39 % UTC.
Take “1198560 (antisense kT*kA*kT*dA*dA*d[5mC]*dT*dG*dG*dG*d[5mC]*dA*kA*kA*kT*eT) [Compound 1198560]”: the “YAP1 (% UT)” value under setting [12] is listed as 53 % UT.
With “1198833 (kA*kG*d[5mC]*dA*d[5mC]*dT*dT*dT*dT*dA*d[5mC]*kA*eT*kT*eA*kG; antisense) [Compound 1198833]”, under setting [2], the “YAP1 (% UT)” value was 54 % UT.
Turning to “1198874 (kA*kA*dG*dT*dG*dT*dA*dT*dG*dT*d[5mC]*kA*eG*kA*eA*kG) [Compound 1198874]”, the “YAP1 (% UT)” value under setting [3] came out at 2 % UT.
With “1198668 (antisense kA*kT*dA*dG*dT*dG*d[5mC]*dT*dT*dT*dG*dG*kA*eA*kG*eA) [Compound 1198668]”, under setting [11], the “YAP1 (% UTC)” value was determined as 72 % UTC.
Regarding “1198396 (kA*d[5mC]*dT*dT*dT*dT*dA*d[5mC]*dA*dT*dT*kA*eG*kG*eA*kA; antisense) [Compound 1198396]”, the “YAP1 (% UTC)” value under setting [7] was 25 % UTC.
As to “1198276 (kA*kG*dT*dA*dA*dG*dG*dT*dT*dT*d[5mC]*e[5mC]*e[5mC]*eA*kG*kA; antisense) [Compound 1198276]”, under setting [4], the “YAP1 (% UTC)” value turned out to be 52 % UTC.
In the case of “1198423 (kT*d[5mC]*dT*dT*dA*dT*dA*dT*dG*dG*dT*kT*eT*kT*eG*kT) [Compound 1198423]”, under setting [7], the “YAP1 (% UTC)” value was determined as 10 % UTC.
With “1198350 (kT*kA*kT*dG*dT*dA*dA*dT*dA*dT*dT*dG*k[5mC]*eA*kA*eT; antisense) [Compound 1198350]”, the “YAP1 (% UT)” value under setting [6] came to 83 % UT.
